Experiments:
[1] = UV light transmittance in a quartz plate (Australian Method); assay type: physicochemical; conditions: solution of 2.0 mg/cm^2 in a quartz plate, 320 to 360 nm
Description: In order to analyze the transmittance of UV light in the wavelength of 320 to 360 nm, solutions of 2.0 mg/cm^2 of the phenothiazines TR, TFP and FP were used in a quartz plate.
As it can be observed, in these conditions, TR, TFP and FP block the passage of almost 100% of UV light incidence (FIG. 1). This evaluation was obtained based on the Australian Method (Perassinoto, N. L., Journal In Comesto, VII Ed., 2006), which was elected the most adequate, because it considers the ε of UVA region of absorption. The other methods are based in the 320 and 360 nm absorption ratio and can generate false negative results. According to the Australian Method, it will be a good sunscreen the compound that blocks 90% of UVA light incidence. In the case of the said cation radicals of the phenothiazines of the present invention, the blockage was of 99.99%.
A solution of 2.0 mg of drug/cm^2 was submitted to an analytical assay in a quartz plate, in the wavelength range from 320 to 360 nm, in order to verify the area of UV light transmittance (FIG. 7).
This evaluation was performed based in the Australian Method (Perassinoto, N. L.; Journal In Comesto; VII edition; p. 06; 2006), which was elected the most adequate, because it considers the ε of UVA region of absorption. The other methods are based in the 360 and 320 nm absorption ratio and can generate false negative results. According to the Australian Method, it will be a good sunscreen the compound that blocks 90% of UVA light incidence.

[2] = Absorption bands of the cationic radicals; assay type: physicochemical; conditions: pre-micellic aggregates and micelles
[3] = system: methionine 80 of cytochrome c; experiment: Photooxidation of model protein cytochrome c under UV irradiation, measured by dislocation to the blue of the Soret band; assay type: biochemical; conditions: pH=4.0, 120 min UV (without drug 406 nm)
Description: (§1) It was analyzed the effect of the concentration of the phenothiazine derived compounds of the present invention TR (graph A, FIG. 2) and TFP (graph B, FIG. 2), on the photooxidation of the model protein (methionine 80 of cytochrome c), measured by the degree of deviation to the blue of the Soret band.
(§2) The white circle, in A and B, represents the damage caused to the protein after two hours of irradiation under UV light at 254 nm, at temperature of 25° C., at pH 4.
(§3) The effect of the media pH on the initial velocity of oxidation of methionine 80 of cytochrome c was analyzed at an UV irradiation of 254 nm, during 120 min, in the absence and in the presence of the stabilized cation radicals of TR, TFP and FP (FIG. 3). In the presence of the stabilized cation radicals of TR, TFP and FP, de concentration range of 5 to 2500 μM for pH 4.0 and the concentration range of 25 to 2500 μM for the pH range of 3.0 to 7.0 were used.
(§4) Samples containing cytochrome c 3 μM and TR 25 μM were irradiated at 254 nm, in phosphate buffer 5 mM, pH=4.0, at […]., in a cuvette, at 4 cm from a UV lamp of 4 W. The spectrum of cytochrome c and of phenothiazine were obtained before the irradiation (fine solid line of FIG. 4) and after 60 and 120 min of irradiation (dotted line and thick solid line, respectively, of FIG. 4). The spectrum shown in the curves corresponds to the overlapping spectrum changes of the phenothiazines detected during the same indicated time points.
(§5) The experiment described in the Example 4 was repeated for different concentrations of phenothiazines. The initial rate of dislocation to the blue of the Soret band was defined regarding the concentration of phenothiazine.
(§6) The irradiation of the cytochrome c was performed during 120 min, pH=4.0 and under UV lamp of 4 W, which led to the dislocation to the blue of the Soret band from 409 to 406 nm, with initial rate of 0.42 ms^−1 (open circle, FIG. 5).
(§7) Irradiation of the cytochrome c 3 μM was performed, for a pH variation range from 3.0 to 7.0. In this pH range, the phenothiazine remained predominately protonated due to its pKa of 8.1. […] In the said pH range, the initial rate of dislocation to the blue of the Soret band was determined, after 120 min of UV irradiation, in the presence and in the absence of TR (FIG. 6).

[4] = target: methionine 80 of cytochrome c (Homo sapiens, UniProt P99999); experiment: as above; assay type: biochemical; conditions: for initial rate of dislocation to the blue of the Soret band: pH=4.0, 120 min UV (without drug 0.42); for effect on damage to cytochrome c: stabilized cation radicals 25 μM
Description: as §1, §2, §3, §4, §5, §6, §7

[5] = two hours UV 254 nm, 25° C., pH 4

Chain of methionine 80 of cytochrome c (Homo sapiens, UniProt P99999) (P99999 whole entry): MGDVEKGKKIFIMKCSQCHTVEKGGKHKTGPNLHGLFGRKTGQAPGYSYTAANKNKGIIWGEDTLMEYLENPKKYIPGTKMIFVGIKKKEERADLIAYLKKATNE
Chain of methionine 80 of cytochrome c (P99999 whole entry): as above

SMILES | blockage of the passage of UV light incidence [1] | absorption band of the cationic radical [2] | Soret band after irradiation ([3]; drug 25 μM) | Soret band after irradiation ([3]; drug 2500 μM) | effect on rate of dislocation to the blue of the Soret band ([4]; 25 μM, pH range from 5.0 to 7.0, 120 min UV) | increase of the initial rate of dislocation to the blue ([4]; 25 μM, pH=3.0) | increase of the initial rate of dislocation to the blue ([4]; 25 μM, pH=4.0) | effect on dislocation rate to the blue ([4]; drug 5 μM, pH=4.0, 120 min UV) | initial rate of dislocation to the blue of the Soret band ([4]; drug 25 μM) | initial rate of dislocation to the blue of the Soret band ([4]; drug 2500 μM) | reduction of the initial rate of dislocation to the blue of the Soret band ([4]; high concentrations, pH=4.0) | effect on damage to cytochrome c ([4]; pH range from 5.0 to 3.0) | effect on damage to cytochrome c ([4]; pH range from 5.0 to 7.0) | concentration up to which increasing drug exacerbated the damage (maximum damage) [4, 5] | effect on photooxidation damage of cytochrome c at very low concentrations [4, 5]
CN1CCN(CCCN2c3ccccc3Sc3ccc(C(F)(F)F)cc32)CC1 [TFP, 10-[3-(4-methylpiperazin-1-yl)propyl]-2-(trifluoromethyl)-10H-phenothiazine] | ~100% | 520 nm |  |  |  |  |  |  |  |  |  |  |  |  | 
CSc1ccc2c(c1)N(CCC1CCCCN1C)c1ccccc1S2 (stereo not drawn) [TR, 10-[2-(1-methyl-2-piperidyl)ethyl]-2-methylsulfanyl-phenothiazine] | ~100% | 615 nm | 405 nm | 407 nm | slight reduction | 250% | ~50% | discrete reduction | 0.6 ms^−1 | 0.23 ms^−1 | around 50% | progressively increased the damage | slightly protected | 25 µM | slight protection
c1ccc2c(c1)Nc1ccccc1S2 [PHT, 10H-phenothiazine] | ~100% |  |  |  |  |  |  |  |  |  |  |  |  |  | 
OCCN1CCN(CCCN2c3ccccc3Sc3ccc(C(F)(F)F)cc32)CC1 [FP, 2-[4-[3-[2-(trifluoromethyl)-10H-phenothiazin-10-yl]propyl]piperazin-1-yl]ethanol] | ~100% | 520 nm |  |  |  |  |  |  |  |  |  |  |  | 10 µM | 

Reference: US20110223221A1, “STABILIZATION PROCESSES OF CATION RADICALS OF PHENOTHIAZINIC COMPOUNDS, COSMECEUTICAL FORMULATIONS AND METHODS FOR SKIN DISEASES AND DISTURBANCES PREVENTION” (priority 2008, published 2011)
